# Source: US20170156324A1 (Dow AgroSciences LLC, priority 2015, published 2017)
# Where “and” joins values, the source holds several entries; their conditions need not be identical. Equal entries are not always repeated.
# Key:
# Assay type in all cases: in vivo
# [1] = test system: Matricaria inodora (scentless mayweed, MATIN); experiment: Field trial, post-emergence % visual weed control, MATIN; conditions: 14DAA, 12 g ai/ha
# Description: (§1) Except for the trials utilizing the OD formulations, Actirob B was applied at 0.5 or 1.0 liters per hectare (L/ha), or Polyglycol 26-2 was applied at 0.5 to 1.0 L/ha in all respective single and tankmixture treatments being evaluated.
# (§2) Trials were established as randomized complete blocks (RCBD) with three to four replicates. Individual treatments were 2-2.5 meters (m) wide and 6-20 m long. An untreated control was included in each trial. All trial sites had naturally occurring populations of weeds.
# (§3) Herbicides were applied with backpack or bicycle sprayers using compressed air, nitrogen (N2) or carbon dioxide (CO2) as a propellant. All sprayers delivered a uniform spray pattern that provided thorough coverage of the foliage using a water volume of 150-300 L/ha. All herbicides were applied post-emergence in the spring to early-summer At the time of herbicide applications, winter wheat crops were at the six-leaf to three-tiller stage. Broadleaf and grass weeds were at a similar stage of growth at the time of herbicide application, typically from five leaf to 3 tiller depending on the weed species and time of year.
# (§4) The treated plots and control plots were rated blind at various intervals after application. […] The control of the target weeds was visually assessed as percent control, compared to an untreated control plot. The assessments were based on a percent visual reduction in pest plant biomass and/or stand reduction of weed population.
# (§5) The efficacy of all treatments was assessed at 13-22 days after application (DAA) for an early season rating, 23-39 DAA for a mid-season rating, and 41-84 DAA for a late-season rating. The data were statistically analyzed using various statistical methods, generally including a Tukey's HSD Factorial Analysis of Variance with a significance level of 5%.
# (§6) Colby's equation was used to determine the herbicidal effects expected from the mixtures (Colby, S. R. Calculation of the synergistic and antagonistic response of herbicide combinations. Weeds 1967, 15, 20-22). A t-test (alpha=0.05) between Colby predictions and observed combinations was used to test for significant differences indicating synergy or antagonism using replicate data.
# (§7) Expected=A+B+C−(AB+AC+BC)/100+(ABC)/10,000
# [2] = test system: Viola arvensis Murr. (field violet, VIOAR); experiment: Field trial, post-emergence % visual weed control, VIOAR; conditions: 12 g ai/ha
# Description: as §1, §2, §3, §4, §5, §6, §7
# [3] = test system: Lamium purpureum L. (purple deadnettle, LAMPU); experiment: Field trial, post-emergence % visual weed control, LAMPU
# Description: as §1, §2, §3, §4, §5, §6, §7
# [4] = test system: Matricaria recutita L. (wild chamomile, MATCH); experiment: Field trial, post-emergence % visual weed control, MATCH
# Description: as §1, §2, §3, §4, §5, §6, §7
# [5] = test system: Stellaria media (L.) Vill. (common chickweed, STEME); experiment: Field trial, post-emergence % visual weed control, STEME
# Description: as §1, §2, §3, §4, §5, §6, §7
# [6] = test system: Centaurea cyanus (cornflower, CENCY); experiment: Field trial, post-emergence % visual weed control, CENCY; conditions: 12 g ai/ha
# Description: as §1, §2, §3, §4, §5, §6, §7
# [7] = test system: Galium aparine L. (catchweed bedstraw, GALAP); experiment: Field trial, post-emergence % visual weed control, GALAP; conditions: 28DAA, 12 g ai/ha
# Description: as §1, §2, §3, §4, §5
# (§8) Colby's equation was used to determine the herbicidal effects expected from the mixtures (Colby, S. R. Calculation of the synergistic and antagonistic response of herbicide combinations. Weeds 1967, 15, 20-22). […]
# [8] = test system: Solanum nigrum L. (black nightshade, SOLNI); experiment: Field trial, post-emergence % visual weed control, SOLNI; conditions: 18.75 g ai/ha
# Description: as §1, §2, §3, §4, §5, §6, §7
# [9] = test system: Consolida regalis S. F. Gray (branching larkspur, CNSRE); experiment: Field trial, post-emergence % visual weed control, CNSRE; conditions: 12 g ai/ha
# Description: as §1, §2, §3, §4, §5, §6, §7
# [10] = test system: Agropyron repens L. (quackgrass, AGRRE); experiment: Field trial, post-emergence % visual weed control, AGRRE; conditions: 14DAA, 12 g ai/ha
# Description: as §1, §2, §3, §4, §5, §8
# [11] = test system: Alopecurus myosuroides Huds. (blackgrass, ALOMY); experiment: Field trial, post-emergence % visual weed control, ALOMY; conditions: 15DAA, 12 g ai/ha
# Description: as §1, §2, §3, §4, §5, §8
# [12] = test system: Apera spica-venti (L.) Beauv. (windgrass, APESV); experiment: Field trial, post-emergence % visual weed control, APESV; conditions: 12 g ai/ha
# Description: as §1, §2, §3, §4, §5, §6, §7
# [13] = test system: Echinochloa crus-galli (L.) P. Beauv. (barnyardgrass, ECHCG); experiment: Field trial, post-emergence % visual weed control, ECHCG; conditions: 18.75 g ai/ha
# Description: as §1, §2, §3, §4, §5, §6, §7
# [14] = test system: Lolium L. sp. (ryegrass, LOLSS); experiment: Field trial, post-emergence % visual weed control, LOLSS; conditions: 14DAA, 18.75 g ai/ha
# Description: as §1, §2
# (§9) Herbicides were applied with backpack or bicycle sprayers using compressed air, nitrogen (N2) or carbon dioxide (CO2) as a propellant. All sprayers delivered a uniform spray pattern that provided thorough coverage of the foliage using a water volume of 150-300 L/ha. […]
# (§10) The treated plots and control plots were rated blind at various intervals after application. […] The control of the target weeds was visually assessed as percent control, compared to an untreated control plot. […]
# as §5, with “5%. […]” for “5%.”
# [15] = test system: Lolium multiflorum Lam. (Italian ryegrass, LOLMU); experiment: Field trial, post-emergence % visual weed control, LOLMU; conditions: 22.5 g ai/ha
# Description: as §1, §2, §9, §10
# as §5, with “5%. […]” for “5%.”
# [16] = test system: Lolium rigidum (rigid ryegrass, LOLRI); experiment: Field trial, post-emergence % visual weed control, LOLRI; conditions: 28DAA, 22.5 g ai/ha
# Description: as §1, §2, §9, §10
# as §5, with “5%. […]” for “5%.”
# [17] = test system: Avena macrocarpa Moench (wild red oat, AVEST); experiment: Field trial, post-emergence % visual weed control, AVEST; conditions: 32DAA, 18.75 g ai/ha
# Description: as §1, §2, §9, §10
# as §5, with “5%. […]” for “5%.”
# [18] = test system: Papaver rhoeas L. (common poppy, PAPRH); experiment: Field trial, post-emergence % visual weed control, PAPRH; conditions: 56DAA, 22.5 g ai/ha
# Description: as §1, §2, §9, §10
# as §5, with “5%. […]” for “5%.”
# Avena sp. (oats, AVESS) = experiment: Field trial, post-emergence % visual weed control, AVESS; conditions: 76DAA, 18.75 g ai/ha
# Description: as §1, §2, §9, §10
# as §5, with “5%. […]” for “5%.”
structure (smiles),measurement,setting,value
"COc1cc(OC)n2nc(NS(=O)(=O)c3c(C(F)(F)F)ccnc3OC)nc2n1 [Pyroxsulam, N-(5,7-dimethoxy[1,2,4]triazolo[1,5-a]pyrimidin-2-yl)-2-methoxy-4-(trifluoromethyl)-pyridine-3-sulfonamide]",Mean % Weed Control,[1],20.0%
same,Mean % Weed Control,[2]; 14DAA,61.3%
same,Mean % Weed Control,[2]; 56DAA,93.8%
same,Mean % Weed Control,"[3]; 15DAA, 9.6 g ai/ha",16.3%
same,Mean % Weed Control,"[3]; 15DAA, 12 g ai/ha",10.0%
same,Mean % Weed Control,"[3]; 32DAA, 9.6 g ai/ha",0.0%
same,Mean % Weed Control,"[4]; 15DAA, 9.6 g ai/ha",12.8%
same,Mean % Weed Control,"[4]; 61DAA, 9.6 g ai/ha",16.3% and 23.7%
same,Mean % Weed Control,"[4]; 61DAA, 12 g ai/ha",20.0% and 26.3%
same,Mean % Weed Control,"[4]; 78DAA, 9.6 g ai/ha",17.0%
same,Mean % Weed Control,"[4]; 78DAA, 12 g ai/ha",18.8%
same,Mean % Weed Control,"[5]; 15DAA, 9.6 g ai/ha",0.0%
same,Mean % Weed Control,"[5]; 15DAA, 12 g ai/ha",0.0%
same,Mean % Weed Control,"[5]; 61DAA, 9.6 g ai/ha",5.0% and 11.1%
same,Mean % Weed Control,"[5]; 61DAA, 12 g ai/ha",3.8% and 9.7%
same,Mean % Weed Control,"[5]; 78DAA, 9.6 g ai/ha",16.3%
same,Mean % Weed Control,"[5]; 78DAA, 12 g ai/ha",13.8%
same,Mean % Weed Control,[6]; 28DAA,38.8%
same,Mean % Weed Control,[6]; 77DAA,15.0%
same,Mean % Weed Control,[6]; 84DAA,12.5%
same,Mean % Weed Control,[7],89.5%
same,Mean % Weed Control,[8]; 29DAA,50.0%
same,Mean % Weed Control,[8]; 56DAA,30.0%
same,Mean % Weed Control,[9]; 31DAA,66.8%
same,Mean % Weed Control,[9]; 53DAA,70.0%
same,Mean % Weed Control,[9]; 84DAA,70%
same,Mean % Weed Control,[10],37.5%
same,Mean % Weed Control,[11],27.5%
same,Mean % Weed Control,[12]; 14DAA,72.5%
same,Mean % Weed Control,[12]; 28DAA,88.8%
same,Mean % Weed Control,[12]; 56DAA,94.5%
same,Mean % Weed Control,[13]; 14DAA,85.0%
same,Mean % Weed Control,[13]; 29DAA,75.0%
same,Mean % Weed Control,[13]; 56DAA,60.0%
same,Mean % Weed Control,[14],90.0%
same,Mean % Weed Control,[15]; 28DAA,72.5%
same,Mean % Weed Control,[15]; 55DAA,72.5%
same,Mean % Weed Control,[16],72.5%
same,Mean % Weed Control,[17],97.8%
same,Mean % Weed Control,[18],1.9%
same,Mean % Weed Control,"Avena sp. (oats, AVESS)",62.0%
